According to patent US9045468B2, “2,5-methano- and 2,5-ethano-tetrahydrobenzazepine derivatives and use thereof to block reuptake of norepinephrine, dopamine, and serotonin” (Albany Molecular Research, Inc., priority 2010, dated 2015):

Legend:
[1] = molecular target: hNET (Homo sapiens (Human), UniProt P23975); assay: NET radioligand binding assay ([3H]nisoxetine, HEK-293 membranes); settings: recombinant HEK-293 membranes, [3H]nisoxetine; read-out: Binding Affinity (IC50, nM) NET
Experimental: (§1) The medium was removed from the flasks and the cells rinsed with HBSS without Ca and without Mg. The cells were then incubated for 5-10 minutes in 10 mM Tris-Cl, pH 7.5, 5 mM EDTA before the cells were lifted with a combination of pipetting and scraping, as needed. The cell suspension was collected into centrifuge bottles and homogenized for 30 seconds with a Polytron homogenizer. The suspension was centrifuged for 30 minutes at 32,000×g, 4° C. The supernatant was decanted and the pellet resuspended and homogenized in 50 mM Tris-Cl, pH 7.5, 1 mM EDTA for 10 seconds. The suspension was then centrifuged again for 30 minutes at 32,000×g, 4° C. The supernatant was decanted and the pellet resuspended in 50 mM Tris-Cl, pH 7.5, 1 mM EDTA and briefly homogenized. A Bradford assay (Bio-rad) was performed and the membrane preparation diluted to 2 mg/ml with 50 mM Tris-Cl, pH 7.5, 1 mM EDTA. Aliquots were prepared, and then frozen and stored at −80° C.
Compounds were dissolved in 100% DMSO at a concentration 100 times the desired highest assay concentration, serially diluted 1:3 in 100% DMSO, and 1.0 μl/well of each solution was dispensed to a Nunc polypropylene, round bottom, 384-well plate. […] 50 μl/well of a 2× membrane preparation (0.4 mg/ml in 50 mM Tris-Cl, pH 7.5, 120 mM NaCl, 5 mM KCl) and 50 μl/well of a 2× radioligand solution (4 nM [^3H]nisoxetine in 50 mM Tris-Cl, pH 7.5, 120 mM NaCl, 5 mM KCl) were added to the well and the reaction incubated for 1 hour at room temperature. The contents of the assay plate were then transferred to a Millipore MultiscreenHTS GF/B filter plate which was pretreated with 0.5% PEI for at least one hour. The plate was vacuum filtered and washed with 7 washes of 100 μl/well 50 mM Tris-Cl, pH 7.5, 120 mM NaCl, 5 mM KCl chilled to 4° C. The filtration and washing were completed in less than 90 seconds. The plates were air-dried overnight, 12 μl/well of MicroScint scintillation fluid added, and the plates counted in a Trilux.
(§2) Each plate was run in triplicate, and the concentration response curve thus generated was fit using the four-parameter dose response equation, Y=Bottom+(Top-Bottom)/(1+10^((Log IC50−X)*HillSlope)) in order to determine the IC50 value for each compound. The radioligand concentration chosen for each assay corresponds to the Kd concentration determined through saturation binding analysis for each assay.

[2] = molecular target: hSERT (Homo sapiens (Human), UniProt P31645); assay: SERT radioligand binding assay ([125I]RTI-55, HEK-293 membranes); settings: recombinant HEK-293 membranes, [125I]RTI-55; read-out: Binding Affinity (IC50, nM) SERT
hSERT, sequence (P31645 whole entry): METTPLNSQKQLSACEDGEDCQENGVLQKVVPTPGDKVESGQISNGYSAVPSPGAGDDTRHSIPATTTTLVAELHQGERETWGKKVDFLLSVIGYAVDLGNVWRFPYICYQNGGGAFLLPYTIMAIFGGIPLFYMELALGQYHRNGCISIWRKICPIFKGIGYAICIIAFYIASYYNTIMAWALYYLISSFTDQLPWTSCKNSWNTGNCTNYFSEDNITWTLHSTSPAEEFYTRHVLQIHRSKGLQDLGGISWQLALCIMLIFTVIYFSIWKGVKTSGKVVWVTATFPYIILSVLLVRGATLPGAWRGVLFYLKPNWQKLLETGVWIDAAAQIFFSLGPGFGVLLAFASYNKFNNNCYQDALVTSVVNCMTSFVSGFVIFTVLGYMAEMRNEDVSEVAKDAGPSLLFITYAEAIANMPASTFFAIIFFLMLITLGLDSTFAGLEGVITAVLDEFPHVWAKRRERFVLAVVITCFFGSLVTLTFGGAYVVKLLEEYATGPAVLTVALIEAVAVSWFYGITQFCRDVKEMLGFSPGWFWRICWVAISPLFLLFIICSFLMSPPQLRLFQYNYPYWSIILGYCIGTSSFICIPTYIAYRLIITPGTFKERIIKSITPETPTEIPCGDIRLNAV
Experimental: as §1
Compounds were dissolved in 100% DMSO at a concentration 100 times the desired highest assay concentration, serially diluted 1:3 in 100% DMSO, and 0.4 μl/well of each solution was dispensed to a Nunc polypropylene, round bottom, 384-well plate. […] The contents of the assay plate were then transferred to a Millipore MultiscreenHTS GF/B filter plate which was pretreated with 0.5% PEI for at least one hour. The plate was vacuum filtered and washed with 7 washes of […] 50 mM Tris-Cl, pH 7.5, 120 mM NaCl, 5 mM KCl chilled to 4° C. The filtration and washing were completed in less than 90 seconds. The plates were air-dried overnight, 12 μl/well of MicroScint scintillation fluid added, and the plates counted in a Trilux.
as §2

[3] = molecular target: hDAT (Homo sapiens (Human), UniProt Q01959); assay: DAT radioligand binding assay ([125I]RTI-55, HEK-293 membranes); settings: recombinant HEK-293 membranes, [125I]RTI-55; read-out: Binding Affinity (IC50, nM) DAT
hDAT, sequence (Q01959 whole entry): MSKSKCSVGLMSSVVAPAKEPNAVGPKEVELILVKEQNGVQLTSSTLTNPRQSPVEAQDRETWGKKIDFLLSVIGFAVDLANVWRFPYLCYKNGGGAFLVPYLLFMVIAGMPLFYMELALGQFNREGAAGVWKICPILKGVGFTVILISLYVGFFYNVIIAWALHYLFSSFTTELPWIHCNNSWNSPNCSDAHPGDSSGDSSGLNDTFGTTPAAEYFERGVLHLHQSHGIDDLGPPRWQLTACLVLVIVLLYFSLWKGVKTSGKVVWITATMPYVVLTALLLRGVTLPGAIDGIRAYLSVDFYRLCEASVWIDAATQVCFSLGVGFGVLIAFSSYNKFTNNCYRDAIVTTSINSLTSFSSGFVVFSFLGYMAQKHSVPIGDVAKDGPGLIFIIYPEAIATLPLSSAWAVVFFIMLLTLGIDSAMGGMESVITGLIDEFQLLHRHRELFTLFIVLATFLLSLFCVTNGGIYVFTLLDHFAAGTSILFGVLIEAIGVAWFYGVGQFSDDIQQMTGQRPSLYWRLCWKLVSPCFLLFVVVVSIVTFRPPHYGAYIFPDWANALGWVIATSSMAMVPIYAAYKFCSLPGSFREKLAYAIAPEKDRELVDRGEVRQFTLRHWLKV
Experimental: as §1, with “Recombinant HEK-293 cells expressing either the hSERT, hDAT, or hNET proteins were harvested from T-175 flasks as follows. The medium” for “The medium”
Compounds were dissolved in 100% DMSO at a concentration 100 times the desired highest assay concentration, serially diluted 1:3 in 100% DMSO, and 0.4 μl/well of each solution was dispensed to a Nunc polypropylene, round bottom, 384-well plate. […] 20 ul/well of a 2× membrane preparation (12.5 μg/ml in 30 mM sodium phosphate buffer, pH 7.9 at 4° C.) and 20 μl/well of a 2× radioligand solution (250 pM [^125I]RTI-55 in 30 mM sodium phosphate buffer, pH 7.9 at 4° C.) were added to the well and the reaction incubated for 1 hour at room temperature. The contents of the assay plate were then transferred to a Millipore MultiscreenHTS GF/B filter plate which was pretreated with 0.5% PEI for at least one hour. The plate was vacuum-filtered and washed with 7 washes of 100 μl/well 50 mM Tris-Cl, pH 7.5, 120 mM NaCl, 5 mM KCl chilled to 4° C. The filtration and washing were completed in less than 90 seconds. The plates were air-dried overnight, 12 μl/well of MicroScint scintillation fluid added, and the plates counted in a Trilux.
as §2

hNET, sequence (P23975 whole entry): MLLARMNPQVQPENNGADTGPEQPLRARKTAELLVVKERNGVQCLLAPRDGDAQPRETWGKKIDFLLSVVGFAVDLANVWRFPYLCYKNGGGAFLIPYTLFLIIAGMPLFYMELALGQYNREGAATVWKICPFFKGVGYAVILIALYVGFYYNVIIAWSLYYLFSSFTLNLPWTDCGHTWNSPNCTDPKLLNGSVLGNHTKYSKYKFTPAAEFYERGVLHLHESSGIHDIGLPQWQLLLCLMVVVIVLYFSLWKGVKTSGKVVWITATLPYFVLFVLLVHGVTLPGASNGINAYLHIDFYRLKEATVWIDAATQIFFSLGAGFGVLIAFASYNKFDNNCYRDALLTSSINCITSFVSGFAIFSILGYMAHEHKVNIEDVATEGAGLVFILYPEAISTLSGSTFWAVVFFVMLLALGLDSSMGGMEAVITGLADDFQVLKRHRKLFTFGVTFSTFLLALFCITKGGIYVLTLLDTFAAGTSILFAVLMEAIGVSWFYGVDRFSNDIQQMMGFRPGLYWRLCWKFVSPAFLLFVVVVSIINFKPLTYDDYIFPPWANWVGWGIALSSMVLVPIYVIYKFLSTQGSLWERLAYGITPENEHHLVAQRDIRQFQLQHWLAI

| Structure (SMILES) | IC50 [1] [nM] | IC50 [2] [nM] | IC50 [3] [nM] |
| --- | --- | --- | --- |
| COc1ccc2c(c1)CN1CCC2(c2ccc(Cl)cc2)C1 (racemic) [Example 1, rac-5-(4-chlorophenyl)-8-methoxy-2,5-methano-2,3,4,5-tetrahydro-1H-benzo[c]azepine] | 675 | 74.2 | – |
| Oc1ccc2c(c1)CN1CCC2(c2ccc(Cl)cc2)C1 (racemic) [Example 2, rac-5-(4-chlorophenyl)-2,5-methano-2,3,4,5-tetrahydro-1H-benzo[c]azepin-8-ol] | – | 126 | – |
| FC(F)(F)c1nnc2ccc(-c3ccc4c(c3)CN3CCC4(c4ccc(Cl)cc4)C3)cn12 (racemic) [Example 4, rac-5-(4-chlorophenyl)-2,5-methano-8-(3-(trifluoromethyl)-[1,2,4]triazolo[4,3-a]pyridin-6-yl)-2,3,4,5-tetrahydro-1H-benzo[c]azepine] | 70.5 | – | 603 |
| FC(F)(F)c1ccc(-c2ccc3c(c2)CN2CCC3(c3ccc(Cl)cc3)C2)nn1 (racemic) [Example 5, rac-5-(4-chlorophenyl)-2,5-methano-8-(6-(trifluoromethyl)pyridazin-3-yl)-2,3,4,5-tetrahydro-1H-benzo[c]azepine] | 274 | 10.1 | 74.2 |
| N#Cc1ccc(-c2ccc3c(c2)CN2CCC3(c3ccc(Cl)cc3)C2)cc1 (racemic) [Example 8, rac-4-(5-(4-chlorophenyl)-2,5-methano-2,3,4,5-tetrahydro-1H-benzo[c]azepin-8-yl)benzonitrile] | 1210 | 16.6 | 450 |
| CS(=O)(=O)c1ccc(-c2ccc3c(c2)CN2CCC3(c3ccc(Cl)cc3)C2)cc1 (racemic) [Example 9, rac-5-(4-chlorophenyl)-2,5-methano-8-(4-(methylsulfonyl)phenyl)-2,3,4,5-tetrahydro-1H-benzo[c]azepine] | 303 | 23.5 | 435 |
| Clc1ccc(C23CCN(Cc4cc(-c5ccc6ncnn6c5)ccc42)C3)cc1 (single isomer, unassigned) [3(+), 8-([1,2,4]triazolo[1,5-a]pyridin-6-yl)-5-(4-chlorophenyl)-2,5-methano-2,3,4,5-tetrahydro-1H-benzo[c]azepine] | 817 | 9.4 | 340 |
| Clc1ccc(C23CCN(Cc4cc(-c5ccc6ncnn6c5)ccc42)C3)cc1 (single isomer, unassigned) [3(−), 8-([1,2,4]triazolo[1,5-a]pyridin-6-yl)-5-(4-chlorophenyl)-2,5-methano-2,3,4,5-tetrahydro-1H-benzo[c]azepine] | 443 | 5.2 | 141 |
| FC(F)Oc1ccc(-c2ccc3c(c2)CN2CCC3(c3ccc(Cl)cc3)C2)nn1 (single isomer, unassigned) [6(+), 5-(4-chlorophenyl)-8(6-(difluoromethoxy)pyridazin-3-yl)-2,5-methano-2,3,4,5-tetrahydro-1H-benzo[c]azepine] | 1170 | 19.3 | 1060 |
| Oc1ccc(-c2ccc3c(c2)CN2CCC3(c3ccc(Cl)cc3)C2)nn1 (single isomer, unassigned) [7(+), 6-(5-(4-chlorophenyl)-2,5-methano-2,3,4,5-tetrahydro-1H-benzo[c]azepin-8-yl)pyridazin-3-ol] | 674 | 62.5 | 148 |
| Clc1ccc(C23CCN(Cc4cc(-c5ccc6ncnn6c5)ccc42)C3)cc1Cl (single isomer, unassigned) [10(+), 8-([1,2,4]triazolo[1,5-a]pyridin-6-yl)-5-(3,4-dichlorophenyl)-2,5-methano-2,3,4,5-tetrahydro-1H-benzo[c]azepine] | 242 | 4.6 | 49.5 |
| Clc1ccc(C23CCN(Cc4cc(-c5ccc6ncnn6c5)ccc42)C3)cc1Cl (single isomer, unassigned) [10(−), 8-([1,2,4]triazolo[1,5-a]pyridin-6-yl)-5-(3,4-dichlorophenyl)-2,5-methano-2,3,4,5-tetrahydro-1H-benzo[c]azepine] | 73.7 | 5.6 | 37.5 |
| O=c1[nH]c2ccc(-c3ccc4c(c3)CN3CCC4(c4ccc(Cl)c(Cl)c4)C3)cc2o1 (single isomer, unassigned) [11(+), 8-(2-oxo-2,3-dihydrobenzo[d]oxazol-6-yl)-5-(3,4-dichlorophenyl)-2,5-methano-2,3,4,5-tetrahydro-1H-benzo[c]azepine] | 369 | 3.5 | 50 |
| O=c1[nH]c2ccc(-c3ccc4c(c3)CN3CCC4(c4ccc(Cl)c(Cl)c4)C3)cc2o1 (single isomer, unassigned) [11(−), 8-(2-oxo-2,3-dihydrobenzo[d]oxazol-6-yl)-5-(3,4-dichlorophenyl)-2,5-methano-2,3,4,5-tetrahydro-1H-benzo[c]azepine] | 92.4 | 3.9 | 19.6 |
| Fc1ccc(C23CCN(Cc4cc(-c5ccc6ncnn6c5)ccc42)C3)cc1Cl (single isomer, unassigned) [55(+), 8-([1,2,4]triazolo[1,5-a]pyridin-6-yl)-5-(3-chloro-4-fluorophenyl)-2,5-methano-2,3,4,5-tetrahydro-1H-benzo[c]azepine] | 956 | 18.6 | 121 |
| Fc1ccc(C23CCN(Cc4cc(-c5ccc6ncnn6c5)ccc42)C3)cc1Cl (single isomer, unassigned) [55(−), 8-([1,2,4]triazolo[1,5-a]pyridin-6-yl)-5-(3-chloro-4-fluorophenyl)-2,5-methano-2,3,4,5-tetrahydro-1H-benzo[c]azepine] | 175 | 2.2 | 35.3 |
| Fc1ccc(C23CCN(Cc4cc(-c5ccc(C(F)(F)F)nn5)ccc42)C3)cc1Cl (single isomer, unassigned) [56(+), 5-(3-chloro-4-fluorophenyl)-2,5-methano-8-(6-(trifluoromethyl)pyridazin-3-yl)-2,3,4,5-tetrahydro-1H-benzo[c]azepine] | 78.6 | 2.4 | 11.4 |
